Measurements as given in patent US7692014B2, “Inhibitors of the HIV integrase enzyme” (Pfizer, Inc., priority 2004, dated 2010).

Target: T1, Full-length wild type HIV-1 integrase (SF1) (Human immunodeficiency virus type 1 group M subtype B, UniProt P04585)
T1 construct: made in house; host or cells: E. coli BL21 (DE3), pET24a vector
Assay: Integrase strand-transfer scintillation proximity assay
Format: biochemical
Conditions: integrase strand-transfer SPA; read-out: IC50
From the text: Integrase Strand-Transfer Scintillation Proximity Assay Oligonucleotides
The annealed product represents preprocessed viral ds-DNA derived from the LTR U5 sequence of the viral genome. A ds-DNA control to test for non-specific interactions was made using a 3′ di-deoxy derivative of oligonucleotide #1 annealed to oligonucleotide #2. The CA overhang at the 5′ end of the non-biotinylated strand of the ds-DNA was created artificially by using a complimentary DNA oligonucleotide shortened by 2 base pairs. This configuration eliminates the requisite 3′ processing step of the integrase enzyme prior to the strand-transfer mechanism.
Host ds-DNA was prepared as an unlabeled and [^3H]-thymidine labeled product from annealed oligonucleotide #3—5-[…]-3′ (SEQ ID NO: 3), and oligonucleotide #4—5′-[…]-3′ (SEQ ID NO: 4), both synthesized by TriLink BioTechnologies, Inc. (San Diego, Calif.). The annealed product had overhanging 3′ ends of poly(dA). […] The radiolabeled product was purified using a NENSORB cartridge and stored in stabilized aqueous solution (PerkinElmer).
Reagents: Streptavidin-coated polyvinyltoluene (PVT) SPA beads were purchased from Amersham Biosciences (Piscataway, N.J.). Cesium chloride was purchased from Shelton Scientific, Inc. (Shelton, Conn.). White, polystyrene, flat-bottom, non-binding surface, 96-well plates were purchased from Corning. All other buffer components were purchased from Sigma (St. Louis, Mo.) unless otherwise indicated. Enzyme Construction: Full-length wild type HIV-1 integrase (SF1) sequence (amino acids 1-288) was constructed in a pET24a vector (Novagen, Madison, Wis.). […] Enzyme Purification: Full length wild-type HIV Integrase was expressed in E.coli BL21 (DE3) cells and induced with 1 mM isopropyl-1 thio-β-D-galactopyranoside (IPTG) when cells reached an optical density between 0.8-1.0 at 600 nm. Cells were lysed by microfluidation in 50 mM HEPES pH 7.0, 75 mM NaCl, 5 mM DTT, 1 mM 4-(2-Aminoethyl)benzenesulfonylfluoride HCl (AEBSF). Lysate was then centrifuged 20 minutes at 11 k rpm in GSA rotor in Sorvall RC-5B at 4° C. Supernant was discarded and pellet resuspended in 50 mM HEPES pH 7.0, 750 mM NaCl, 5 mM DTT, 1 mM AEBSF and homogenized in a 40 mL Dounce homogenizer for 20 minutes on ice. Homogenate was then centrifuged 20 minutes at 11 k rpm in SS34 rotor in Sorvall RC-5B at 4° C. Supernant was discarded and pellet resuspended in 50 mM HEPES pH 7.0, 750 mM NaCl, 25 mM CHAPS, 5 mM DTT, 1 mM AEBSF. Preparation was then centrifuged 20 minutes at 11 k rpm in SS34 rotor in Sorvall RC-5B at 4° C.
Supernant was then diluted 1:1 with 50 mM HEPES pH 7.0, 25 mM CHAPS, 1 mM DTT, 1 mM AEBSF and loaded onto a Q-Sepharose column pre-equilibrated with 50 mM HEPES, pH 7.0, 375 mM NaCl, 25 mM CHAPS, 1 mM DTT, 1 mM AEBSF. The flow through peak was collected and NaCl diluted to 0.1 M with 50 mM HEPES pH 7.0, 25 mM CHAPS, 1 mM DTT, 0.5 mM AEBSF and loaded onto a SP-Sepharose column pre-equilibrated with 50 mM HEPES pH 7.0, 100 mM NaCl, 25 mM CHAPS, 1 mM DTT, 0.5 mM AEBSF. After washing the column with the equilibration buffer, a 100 to 400 mM NaCl gradient was run. The eluted integrase was concentrated and run on a S-300 gel diffusion column using 50 mM HEPES pH 7.0, 500 mM NaCl, 25 mM CHAPS, 1 mM DTT, 0.5 mM AEBSF. […] All columns were run in a 4° C. cold room.
Viral DNA Bead Preparation: Streptavidin-coated SPA beads were suspended to 20 mg/mL in 25 mM 3-morpholinopropanesulfonic acid (MOPS) (pH 7.2) and 1.0% NaN3.

Row | Compound | IC50 [µM]
1 | CN(CCc1ccccn1)Cc1cn(Cc2ccc(F)cc2)c2cnc3c(=O)n(O)ccc3c12 [Example 16, 3-(4-fluorobenzyl)-7-hydroxy-1-{[methyl (2-pyridin-2-ylethyl)amino]methyl}-3,7-dihydro-6H-pyrrolo[2,3-c]-1,7-naphthyridin-6-one] | 0.006
2 | O=C1CCCN1CC1(O)CCN(Cc2cn(Cc3ccc(F)cc3)c3cnc4c(=O)n(O)ccc4c23)CC1 [Example 18, 3-(4-fluorobenzyl)-7-hydroxy-1-({4-hydroxy-4-[(2-oxopyrrolidin-1-yl)methyl]piperidin-1-yl}methyl)-3,7-dihydro-6H-pyrrolo[2,3-c]-1,7-naphthyridin-6-one] | 0.011
3 | O=C1CCN(Cc2cn(Cc3ccc(F)cc3)c3cnc4c(=O)n(O)ccc4c23)CCN1 [Example 19, 3-(4-fluorobenzyl)-7-hydroxy-1-[(5-oxo-1,4-diazepan-1-yl)methyl]-3,7-dihydro-6H-pyrrolo[2,3-c]-1,7-naphthyridin-6-one] | 0.005
4 | NC(=O)[C@@H]1CCCN1S(=O)(=O)c1cn(Cc2ccc(F)cc2)c2cnc3c(=O)n(O)ccc3c12 [Example 20, 1-{[3-(4-fluorobenzyl)-7-hydroxy-6-oxo-6,7-dihydro-3H-pyrrolo[2,3-c]-1,7-naphthyridin-1-yl]sulfonyl)-L-prolinamide] | 0.009
5 | O=c1c2ncc3c(c(S(=O)(=O)NCCc4c[nH]c5ccccc45)cn3Cc3ccc(F)cc3)c2ccn1O [Example 21, 3-(4-fluorobenzyl)-7-hydroxy-N-{2-(1H-indol-3-yl)ethyl]-6-oxo-6,7-dihydro-3H-pyrrolo[2,3-c]-1,7-naphthyridine-1-sulfonamide] | 0.046
6 | O=C1CN(S(=O)(=O)c2cn(Cc3ccc(F)cc3)c3cnc4c(=O)n(O)ccc4c23)CCN1 [Example 22, 3-(4-fluorobenzyl)-7-hydroxy-1-[(3-oxopiperazin-1-yl)sulfonyl]-3,7-dihydro-6H-pyrrolo[2,3-c]-1,7-naphthyridin-6-one] | 0.006
7 | CN(C)S(=O)(=O)c1cn(Cc2ccc(F)cc2)c2cnc3c(=O)n(O)ccc3c12 [Example 23, 3-(4-fluorobenzyl)-7-hydroxy-N,N-dimethyl-6-oxo-6,7-dihydro-3H-pyrrolo[2,3-c]-1-naphthyridine-1-sulfonamide] | 0.01
8 | O=c1c2ncc3c(c(S(=O)(=O)NCC(F)(F)F)cn3Cc3ccc(F)cc3)c2ccn1O [Example 24, 3-(4-fluorobenzyl)-7-hydroxy-6-oxo-N-(2,2,2-trifluoroethyl)-6,7-dihydro-3H-pyrrolo[2,3-c]-1,7-naphthyridine-1-sulfonamide] | 0.005
9 | O=c1c2ncc3c(c(S(=O)(=O)NCc4ccc(F)cc4)cn3Cc3ccc(F)cc3)c2ccn1O [Example 25, N,3-bis(4-fluorobenzyl)-7-hydroxy-6-axo-6,7-dihydro-3H-pyrrolo[2,3-c]-1,7-naphthyridine-1-sulfonamide] | 0.035
10 | O=C(c1cn(Cc2ccc(F)cc2)c2cnc3c(=O)n(O)ccc3c12)N1CCCC1 [Example 26, 3-(4-fluorobenzyl)-7-hydroxy-1-(pyrrolidin-1-ylcarbonyl)-3,7-dihydro-6H-pyrrolo[2,3-c]-1,7-naphthyridin-6-one] | 0.009
11 | CC(=O)N1CCN(C(=O)c2cn(Cc3ccc(F)cc3)c3cnc4c(=O)n(O)ccc4c23)CC1 [Example 27, 1-[(4-acetylpiperazin-1-yl)carbonyl]-3-(4-fluorobenzyl)-7-hydroxy-3,7-dihydro-6H-pyrrolo[2,3-c]-1,7-naphthyridin-6-one] | 0.013
12 | O=C(NCCc1cnccn1)c1cn(Cc2ccc(F)cc2)c2cnc3c(=O)n(O)ccc3c12 [Example 28, 3-(4-fluorobenzyl)-7-hydroxy-6-oxo-N-(2-pyrazin-2-ylethyl)-6,7-dihydro-3H-pyrrolo[2,3-c]-1,7-naphthyridine-1-carboxamide] | 0.012
13 | O=C(NCc1ccccn1)c1cn(Cc2ccc(F)cc2)c2cnc3c(=O)n(O)ccc3c12 [Example 29, 3-(4-fluorobenzyl)-7-hydroxy-6-oxo-N-(pyridin-2-ylmethyl)-6,7-dihydro-3H-pyrrolo[2,3-c]-1,7-naphthyridine-1-carboxamide] | 0.012
14 | O=C(NCC(F)(F)F)c1cn(Cc2ccc(F)cc2)c2cnc3c(=O)n(O)ccc3c12 [Example 30, 3-(4-fluorobenzyl)-7-hydroxy-6-oxo-N-(2,2,2-trifluoroethyl)-6,7-dihydro-3H-pyrrolo[2,3-c]-1,7-naphthyridine-1-carboxamide] | 0.013
15 | O=c1c2ncc3c(c(COC[C@@H](O)CO)cn3Cc3ccc(F)cc3)c2ccn1O [Example 31, 1-({[(2S)-2,3-dihydroxypropyl]oxy}methyl)-3-(4-fluorobenzyl)-7-hydroxy-3,7-dihydro-6H-pyrrolo(2,3-c]-1,7-naphthyridin-6-one] | 0.009
16 | CC(C)(C)OC(=O)N1CCC(COCc2cn(Cc3ccc(F)cc3)c3cnc4c(=O)n(O)ccc4c23)CC1 [Example 32] | 0.108
17 | O=c1c2ncc3c(c(COCCc4ccccn4)cn3Cc3ccc(F)cc3)c2ccn1O [Example 33, 3-(4-fluorobenzyl)-7-hydroxy-1-[(2-pyridin-2-ylethoxy)methyl]-3,7-dihydro-6H-pyrrolo[2,3-c]-1,7-naphthyridin-6-one] | 0.026
18 | O=c1c2ncc3c(c(COCCOC4CCCCC4)cn3Cc3ccc(F)cc3)c2ccn1O [Example 34, 1-{[2-(cyclohexyloxy)ethoxy]methyl}-3-(4-fluorobenzyl)-7-hydroxy-3,7-dihydro-6H-pyrrolo[2,3-c]-1,7-naphthyridin-6-one] | 0.045
19 | COCCOCc1cn(Cc2ccc(F)cc2)c2cnc3c(=O)n(O)ccc3c12 [Example 36, 3-(4-fluorobenzyl)-7-hydroxy-1-[(2-methoxyethoxy)methyl]-3,7-dihydro-6H-pyrrolo[2,3-c]-1,7-naphthyridin-6-one] | 0.02
20 | O=c1c2ncc3c(c(COC4CCOCC4)cn3Cc3ccc(F)cc3)c2ccn1O [Example 37, 3-(4-fluorobenzyl)-7-hydroxy-1-[(tetrahydro-2H-pyran-4-yloxy)methyl]-3,7-dihydro-6H-pyrrolo[2,3-c]-1,7-naphthyridin-6-one] | 0.023
21 | O=c1c2ncc3c(c(CNC4(CO)CCCC4)cn3Cc3ccc(F)cc3)c2ccn1O [Example 39, 3-(4-fluorobenzyl)-7-hydroxy-1-({[1-(hydroxymethyl)cyclopentyl]amino)methyl)-3,7-dihydro-6H-pyrrolo[2,3-c]-1,7-naphthyridin-6-one] | 0.079
22 | CCCNCc1cn(Cc2ccc(F)cc2)c2cnc3c(=O)n(O)ccc3c12 [Example 40, 3-(4-fluorobenzyl)-7-hydroxy-1-[(propylamino)methyl]-3,7-dihydro-6H-pyrrolo[2,3-c]-1,7-naphthyridin-6-one] | 0.062
23 | Cc1cccc(CNCc2cn(Cc3ccc(F)cc3)c3cnc4c(=O)n(O)ccc4c23)c1 [Example 41, 3-(4-fluorobenzyl)-7-hydroxy-1-{[(3-methylbenzyl)amino]methyl}-3,7-dihydro-6H-pyrrolo[2,3-c]-1,7-naphthyridin-6-one] | 0.042
24 | Cc1cnc(CNCc2cn(Cc3ccc(F)cc3)c3cnc4c(=O)n(O)ccc4c23)cn1 [Example 42, 3-(4-fluorobenzyl)-7-hydroxy-1-({[(5-methylpyrazin-2-yl)methyl]amino)methyl)-3,7-dihydro-6H-pyrrolo[2,3-c]-1,7-naphthyridin-6-one] | 0.054
